How the values were obtained:
[1] = Photostability test (UV-A 356 nm, 1H NMR); format: physicochemical; design: key: 4 = No qualitative change in ^1H NMR spectrum; 3 = Minute noise but no qualitative change in ^1H NMR spectrum; 2 = Clear noise and some qualitative change in ^1H NMR spectrum; 1 = Qualitative confirmation is difficult in ^1H NMR spectrum; conditions: room temperature
Method: In order to examine photostability of the compound of formula (1) compared with retinol, 10 mg of sample was irradiated by UV-A light (wavelength 356 nm) using a Spectroline (Model CM-10; Fluorescence analysis cabinet; Spectronics Corporation, Westbury, N.Y., USA) at certain intervals of time at room temperature.

[2] = tested on: AP-1 (comprising c-Jun protein); assay: Inhibition of activity of AP-1 protein (Coll-CAT collagenase promoter reporter in HaCaT cells); format: cell-based; conditions: for Relative inhibition against the expression of collagenase / effect on / inhibitory activity against c-Jun (AP-1), in words: HaCaT, Coll-CAT; for effect on / inhibitory activity against c-Jun (AP-1), in words: c-Jun / RAR α cotransfection
Method: AP-1 (comprising c-Jun protein) is a transcription factor inducing the expression of collagenase that is a major cause of skin wrinkles. […] Therefore, studies thereabout were carried out in a similar manner to Experiment 6 as follows.
Experimental procedure: CAT reporter (Coll-CAT) having the collagenase promoter wherein AP-1 response element (TRE) is contained, was transfected into HaCaT cell line, a skin cancer cell line, using a liposome. Then, the degree of inhibition against the activity of AP-1 by retinol derivatives was measured through CAT ELISA in a similar manner to Experiment 6. Further, the effect of retinol derivatives on the transcriptional activity of c-Jun (a protein that induces transfer of cancer, skin aging and inflammation, and consists of homologous isomers or heterologous isomers), a constitutional element of AP-1, was examined by cotransfecting c-Jun or RAR α expression vector.

RAR α = target: T1, RAR α (Homo sapiens, UniProt P10276); assay: Activity for RAR α (CAT reporter in HaCaT cells); format: cell-based; conditions: 1 μM, CAT ELISA
T1 construct: expressed in transfected cells; host or cells: HaCaT
T1 sequence (P10276 1-462): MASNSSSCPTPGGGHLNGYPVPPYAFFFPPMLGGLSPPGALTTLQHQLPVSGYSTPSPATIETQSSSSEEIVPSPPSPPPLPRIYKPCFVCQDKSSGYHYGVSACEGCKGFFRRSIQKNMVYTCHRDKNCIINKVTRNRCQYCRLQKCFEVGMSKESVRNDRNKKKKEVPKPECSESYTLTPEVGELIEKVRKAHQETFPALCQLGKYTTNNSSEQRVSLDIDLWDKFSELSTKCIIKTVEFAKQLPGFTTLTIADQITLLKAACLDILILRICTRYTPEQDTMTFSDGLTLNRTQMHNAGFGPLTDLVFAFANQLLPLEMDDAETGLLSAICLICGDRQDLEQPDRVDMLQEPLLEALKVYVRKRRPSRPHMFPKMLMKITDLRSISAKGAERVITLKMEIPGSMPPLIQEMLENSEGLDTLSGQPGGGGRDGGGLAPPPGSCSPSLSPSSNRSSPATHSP
Method: (§1) The effect of the retinol derivatives on the activity of RAR and RXR was examined as follows.
(§2) Experimental procedure: Recombinant gene of DR5-tk-CAT or DR1-tk-CAT comprising DR1 or DR5 as a response element of RAR/RXR, […] promoter, and CAT (chloramphenicol acetyl transferase) was suitably combined with a plasmid DNA that expresses RAR α, β, γ and cotransfected to HaCaT cell line, a skin cancer cell line, with Lipofectamin (GibcoBRL). Then, the cells were incubated in DMEM/10% FBS medium for 1 day, retinol derivative was added in a concentration of 1 μM, and the cells were incubated again for 1 day under the condition of 5% CO2 and 37° C. The cells were washed with phosphate-buffered salione (PBS). Proteins were extracted from each cell, the activity of β-galactosidase was assayed, and the amount of protein was measured to determine the transfection efficiency. Further, the degree of transcription for RAR or RXR was analyzed by CAT ELISA (Roche Molecular Biochemicals, Mannheim, Germany).

RAR γ = target: T2, RAR γ (Homo sapiens, UniProt P13631); assay: Activity for RAR γ (CAT reporter in HaCaT cells); format: cell-based; conditions: 1 μM, CAT ELISA
T2 construct: expressed in transfected cells; host or cells: HaCaT
T2 sequence (P13631 1-454): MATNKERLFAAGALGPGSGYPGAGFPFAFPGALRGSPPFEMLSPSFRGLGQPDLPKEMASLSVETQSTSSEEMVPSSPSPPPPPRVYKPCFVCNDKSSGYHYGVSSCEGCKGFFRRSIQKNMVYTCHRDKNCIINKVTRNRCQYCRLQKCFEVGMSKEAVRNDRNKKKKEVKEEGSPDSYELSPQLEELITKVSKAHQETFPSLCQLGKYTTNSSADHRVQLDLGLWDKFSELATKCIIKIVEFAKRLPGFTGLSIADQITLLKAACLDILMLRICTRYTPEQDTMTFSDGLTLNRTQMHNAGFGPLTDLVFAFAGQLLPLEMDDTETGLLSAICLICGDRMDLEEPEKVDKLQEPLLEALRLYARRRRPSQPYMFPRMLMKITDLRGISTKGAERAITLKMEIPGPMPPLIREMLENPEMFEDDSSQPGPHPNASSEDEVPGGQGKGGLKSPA
Method: as §1, §2

RAR β = target: T3, RAR β (Homo sapiens, UniProt P10826); assay: Activity for RAR β (CAT reporter in HaCaT cells); format: cell-based; conditions: 1 μM, CAT ELISA
T3 construct: expressed in transfected cells; host or cells: HaCaT
T3 sequence (P10826 1-455): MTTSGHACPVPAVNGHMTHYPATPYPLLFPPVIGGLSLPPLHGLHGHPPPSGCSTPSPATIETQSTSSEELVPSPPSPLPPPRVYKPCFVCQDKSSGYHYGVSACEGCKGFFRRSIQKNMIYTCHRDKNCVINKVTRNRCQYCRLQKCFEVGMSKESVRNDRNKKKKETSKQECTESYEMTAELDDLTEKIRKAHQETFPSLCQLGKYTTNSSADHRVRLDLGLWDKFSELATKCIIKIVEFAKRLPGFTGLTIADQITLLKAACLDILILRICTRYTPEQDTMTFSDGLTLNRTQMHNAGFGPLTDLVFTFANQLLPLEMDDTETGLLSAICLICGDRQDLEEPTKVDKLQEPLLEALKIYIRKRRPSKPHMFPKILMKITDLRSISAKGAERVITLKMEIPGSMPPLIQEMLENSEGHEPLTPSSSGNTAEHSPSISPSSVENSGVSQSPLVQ
Method: as §1, §2

RXR α, β, γ = assay: Activity for RXR (CAT reporter in HaCaT cells); format: cell-based; conditions: 1 μM, CAT ELISA, Control = 1.0
Method: as §1, §2

[3] = tested on: Normal human fibroblast (Newborn, passage: 6); assay: Collagen synthesis test (Sircol collagen assay); format: cell-based; conditions: 0.000001%, 0.00001%(w/v); human fibroblast
Method: The effect for collagen synthesis of the compound of formula (1) was examined by using retinol, retinoic acid, and derivatives thereof as comparison compounds to confirm its utility as inhibitors for skin aging as follows. The results are represented in FIG. 2.
Cell: Normal human fibroblast (Newborn, passage: 6)
Medium: DMEM containing 10% FBS→DMEM free of FBS was used when cells were treated with samples.
Concentration: A range of concentration where the samples exert no toxicity to the cells was selected through a cell toxicity test ? 0.000001%, 0.00001%(w/v)
Procedure: 1×10^5 cells/well were inoculated into a 6-well plate. Cells were cultured to show about 79–80% confluent. Cells were treated with test samples and incubated for 2 days (FBS was not added to the medium when cells were treated with samples). After 2 days, cell medium and cells were separated from each other and respectively stored in a refrigerator. The cell extract was subjected to the protein analysis (BCA Protein Assay Kit, PIERCE 23225) and the medium was subjected to collagen analysis.
After the medium was removed, a small amount of PBS was added. Cells were scraped with a scraper. 1N NaOH (100 μl) and distilled water (400 μl) were added and the resulting mixture was allowed to stand overnight. Then, the protein analysis was carried out.
Collagen analysis: Analysis kit (Sircol Collagen assay kit—a dye that specifically combines with soluble collagen is used)
1.0 ml of Sircol Dye Reagent was introduced into each tube and mixed for 30 minutes. The mixture was centrifuged for 10 minutes at 5,000 g or more and the supernatant was removed. 1.0 ml Sircol Alkali Reagent was added, slowly mixed, and absorbance at 540 nm was measured. The amount of protein was converted into the value of collagen analysis (see: Mechanism of Aging and Development 73, 179–187, 1994).
After the above experiment, the increasing ratio for collagen synthesis of the test group over the control group treated only by DMEM was depicted in FIG. 2.

skin of normal adults = assay: Test for skin irritation property (closed patch test); format: in vivo, human; conditions: closed patch test 24 hours, 20 adults
Method: In order to examine the skin irritation of the compound of formula (1), a patch test for the skin of normal adults was carried out. As the carrier, capryl caprylic triglyceride or the conventional O/W formulation was used, and twenty (20) adults per a group were tested for 24 hours.
The conventional O/W formulation used in the present experiment was prepared according to the following procedure.
Each of the aqueous part of Nos. 1–6 and the oily part of Nos. 7–13 as shown in the following Table 1 was heated to 75–80° C. to be thoroughly dissolved. The oily part was slowly added to the aqueous part and emulsification was performed for 5 minutes at 75–80° C. in a homomixer of 3000rpm. During the emulsification, the mixture was neutralized by the neutralizing agent of No. 14. After the first emulsification, the mixture was cooled, the retinal retaliate and fragrance of Nos. 15–16 were added at 50–55° C., and then the second emulsification was carried out for 3 minutes in a homomixer of 3000rpm. The mixture was cooled again to 27–30° C. to prepare the composition of O/W formulation.
From the experimental results, the irritation indexes were calculated according to the following Equation 1 and the results are represented in the following Table 2. Irritation index={Σ(Test Value×Number of Examinees Corresponding to the Test Value)/(Total Examinees×The Maximum Test Value)×100 Equation 1
Test Value +++: 5, ++: 4, +: 3, +−: 2, −:1
The degree of irritation was determined according to the following standards:
1.9 or less: Minute irritation, 2.0–2.9: Weak irritation, 3.0–3.9: Moderate irritation, 4.0 or more: Strong irritation

[4] = Condition of expression: c-Jun + RAR α, untreated = 8.6
[5] = Condition of expression: c-Jun, untreated = 8.6
[6] = Condition of expression: — (no c-Jun or RAR α vector), untreated = 1.0
[7] = Control = 1.0, listed as retinal acetyl salicylate
[8] = Control = 1.0, listed as retinal salicylate

SMILES	Relative inhibition against the expression of collagenase [2, 4]	Relative inhibition against the expression of collagenase [2, 5]	Relative inhibition against the expression of collagenase [2, 6]	Relative activity against RAR α (RAR α; Control = 1.0)	Relative activity against RAR γ (RAR γ; Control = 1.0)	Relative activity against RAR β (RAR β; Control = 1.0)	Relative activity against RXR α, β, γ (RXR α, β, γ)	effect on / inhibitory activity against c-Jun (AP-1), in words [2]	further results
CC1=C(/C=C/C(C)=C/C=C/C(C)=C/C(=O)OC(=O)/C=C(C)/C=C/C=C(C)/C=C/C2=C(C)CCCC2(C)C)C(C)(C)CCC1	–	–	–	–	–	–	–	–	Photostability level ([1]; After 0 hour, 10 mg sample): 4; Photostability level ([1]; After 2 hours): 3; Photostability level ([1]; After 12 hours): 2; Photostability level ([1]; After 24 hours): 2; Photostability level ([1]; After 48 hours): 2
CC1=C(/C=C/C(C)=C/C=C/C(C)=C/C(=O)O)C(C)(C)CCC1 [Retinoic acid]	3.1	5.4	0.6	37.0	3.0	4.0	9.5	–	inhibition of the expression of collagenase ([2]; cells treated together with RAR α (c-Jun expressed)): about 64%
CCCCCCCCCCCCCCCC(=O)OC/C=C(C)/C=C/C=C(C)/C=C/C1=C(C)CCCC1(C)C [Retinyl Palmitate]	–	–	–	–	–	–	–	–	effect for collagen synthesis (FIG. 2), comparison in words [3]: much lower effect for collagen synthesis than retinol; Degree of Irritation (skin of normal adults; 0.138% in C.C.T): Moderate irritation (3.0–3.9: Moderate irritation); Irritation Index (skin of normal adults; 0.138% in C.C.T): 3.8; Degree of Irritation (skin of normal adults; 0.55% in C.C.T): Strong irritation (4.0 or more: Strong irritation); Irritation Index (skin of normal adults; 0.55% in C.C.T): 4.5
CC(=O)Oc1ccccc1C(=O)OC/C=C(C)/C=C/C=C(C)/C=C/C1=C(C)CCCC1(C)C [Retinyl acetyl salicylate]	8.7	8.5	1.0	2.5	1.0	1.0	1.1	no effect	Relative activity against RAR α (RAR α; [7]): low activity; Relative activity against RAR γ (RAR γ; [7]): no activity; Relative activity against RAR β (RAR β; [7]): no activity
CC1=C(/C=C/C(C)=C/C=C/C(C)=C/COC(=O)c2ccccc2O)C(C)(C)CCC1 [Retinyl salicylate]	8.8	8.7	1.0	3.2	1.0	1.1	1.0	no effect	Relative activity against RAR α (RAR α; [8]): low activity; Relative activity against RAR γ (RAR γ; [8]): no activity; Relative activity against RAR β (RAR β; [8]): no activity

Reference: patent US7173062B2, “Method for the improvement of skin wrinkles using retinyl retinoate” (Enprani Co., Ltd., priority 2001, dated 2007)
